From patent US20100047332A1, “Treatments for burns using thyroid hormone compound in a human” (priority 2005, published 2010)

Columns and labels:
Assay type in all cases: in vivo, human
[1] = system: second degree partial thickness scald burn; assay: TriAc cream applied intermittently to a scalding burn in a burn patient
Procedure: The water content was 65 to 75%, with approximately 30% solids. The semi solid cream formulation includes water, emulsifier, aloe vera, and less than 1% of d-tocopherol acetate or equivalent, panthenol, and retinyl palmitate.
On scalding burn day 0, ice was applied all night. The wound appeared as a large reddish area approximately 15 by 30 cm, with an area of white skin approximately 10 by 10 cm. The cream was applied to the entire area in an amount of much less than 1 gm (less than 80 μg per 400 cm^2) on the evening of Day 1, 24 hours post burn. The worst blistering and numbness was over the whitish area. Over the next 48 hours, the wound became somewhat less painful and the white area started to become pink and then red. The outer area extending over the knee remained red. This burn was therefore a split thickness second degree burn with areas of third degree burn.
The cream was applied again on the evening of Day 3, 72 hours post burn, only to a small area of most burned blistered skin over the original whitish area. […] Prior to application of the cream, the entire area was brilliantly red.
The cream was applied again on the evening of Day 4 over the entire area during this application. […] The entire area of the burn now had brownish epidermis in the process of being sloughed. […] FIGS. 1 and 2 are separated by approximately 36 hours.
This is six 24 hour periods from the time of the burn. […] The outline of the burn injury can clearly be seen by examining the margins of the wound.

[2] = system: wounds such as lacerations; assay: Lacerations treated with continuous topical T-3 or TriAc; conditions: continuous topical application, in approximately three days
[3] = system: lateral hip fat deposits; assay: TriAc cream before exercise for lateral hip fat deposits
Text: A non obese person who ran 20 miles a week had lateral hip fat deposits which were resistant to any change.

O=C(O)Cc1cc(I)c(Oc2ccc(O)c(I)c2)c(I)c1 [TriAc, [4-(4-hydroxy-3-iodophenoxy)-3,5-diiodophenyl]acetic acid]
pain in the small treated area ([1]; 24 hours after Day 3 application): greatly diminished
increase in healing rate ([1]; about 1/20th to 1/40th of a normal daily replacement dose, intermittent): greater than 100%
pigmentation or scar ([1]; after 1.5 years): no pigmentation or scar
pain ([1]; after application over entire area on Day 4): All pain was resolved overnight
erythema and tenderness ([1]; applied Day 3 to a small area, only where applied): decrease in erythema and tenderness
healing rate of a burn ([1]; applied twice, less than 80 μg per 400 cm^2, versus time course in medical literature): approximately doubled the healing rate
effect of the first application ([1]; cream applied to entire area on Day 1, observed over next 48 hours): no visible or other obvious indications that the first application had any effect
signs of inflammation or infection in the wound ([1]; day 5): no signs of inflammation or infection
re-epithelialization of the skin ([1]; day 5, 20 hours after second application to entire area): virtually completely re-epithelialized
time to complete re-epithelialization ([1]; post scald second degree partial thickness burn): five to six 24 hour periods
healing time versus average prior art healing time ([1]; prior art 19 days): fourteen days less than the average prior art healing time of 19 days
signs of inflammation [2]: increased signs of inflammation
change of fat deposits ([3]; 9 mg TriAc per 100 ml base, 1 to 3 times a week before exercise, for 2 to 3 weeks): Little change
fat deposits ([3]; after 5 weeks of application): could barely be discerned
